# Assay results taken from patent publication US9605026B2, “Hydrogen-bond surrogate peptides and peptidomimetics for p53 reactivation” (New York University, priority 2013, dated 2017).
# Legend:
# UMSCC47 cells = experiment: Cell proliferation (MTT) in UMSCC47 cells; type: cell-based, human
# Description: (§1) FIG. 5A is an schematic illustration showing that CH1 has two distinct target sites. HIF1-α/p300 structures were used as guides to design helix mimetics that target site A and site B on the CH1 domain of p300. […] CH1iA (SEQ ID NO: 7) and CH1iB (SEQ ID NO: 8) were designed to mimic two helices from the C-terminal domain of HIF-1α. The peptides were locked into the helical conformation by the hydrogen bond surrogate method. FIG. 5C is a graph of p53 activity. UMSCC47 (left) and UMSCC74A (right) cells were co-transfected with a p53 Firefly luciferase reporter plasmid and a control Renilla luciferase plasmid. After 24 hours, cells were treated with control (vehicle), CH1iA (10 μM), or CH1iB (10 μM) for 24 hours. Firefly luciferase activity was normalized to Renilla luciferase activity to control for transfection efficiency. Data is normalized to control and presented as mean±SEM. *P<0.05, n=3. FIG. 5D is a western blot showing total and acetylated p53 levels. UMSCC47 (left) and UMSCC74A (right) cells were treated with control (vehicle), CH1iA (10 μM), or CH1iB (10 μM) for 24 hours. Cell lysates were immunoblotted with anti-p53 or anti-acetylated[K382]-p53 antibody. FIG. 5E is a pair of graphs of p300, p53, p21, miR-34a, and miR-200c expression. UMSCC47 (top panel) and UMSCC74A (bottom panel) cells were treated with control (vehicle), CH1iA (10 μM), or CH1iB (10 μM) for 24 hours. mRNA expression was determined using qPCR with validated TaqMan assays. Data is normalized to control cells and presented as mean±SEM. *P<0.01, control vs. CH1iB, n=3. FIG. 5F is a western blot showing HPV16 E6-p300 association. UMSCC47 cells were treated with control (vehicle), CH1iA (10 μM), or CH1iB (10 μM) for 24 hours. Cell lysates were extracted, immunoprecipitated with anti-p300 antibody, and immunoblotted with anti-E6 antibody. Cell lysates were immunoblotted with anti-E6 or anti-p300 antibody for input control. FIG. 5G is a set of graphs of cell proliferation. UMSCC47 (top left panel), UMSCC74A (top right panel), and IMR90 (human normal fibroblasts) (bottom panel) cells were treated with control (vehicle), CH1iA (10 μM), CH1iB (10 μM), cis-platinum (10 μM), CH1iA (10 μM) and cis-platinum (10 μM), or CH1iB (10 μM) and cis-platinum (10 μM) for 24, 48, or 72 hours. Data is normalized to Day 0 and presented as mean±SEM. *P<0.01, control vs. CH1iB or cis-platinum, **P<0.01 CH1iB or cis-platinum vs. CH1iB and cis-platinum, n=6.
# FIG. 7A is a graph of p53 transcriptional activity. UMSCC47 cells were co-transfected with a p53 Firefly luciferase reporter plasmid and a control Renilla luciferase plasmid. After 24 hours, cells were treated with control (vehicle) or CH1iB-mut (10 μM) for 24 hours. Firefly luciferase activity was normalized to Renilla luciferase activity to control for transfection efficiency. Data is presented as mean±SEM. *P<0.05, n=5. FIG. 7B is a graph of cell proliferation. UMSCC47 cells were treated with control (vehicle), CH1iB-mut (10 μM), cis-platinum (10 μM), or CH1iB-mut (10 μM) and cis-platinum (10 μM) for 24 or 48 hours. Data is normalized to Day 0 and presented as mean±SEM. *P<0.01, control or CH1iB-mut vs. cis-platinum or cis-platinum+CH1iB-mut, n=6.
# Cell proliferation was assessed using the MTT reagent (Roche Molecular Biochemicals, Nutley, N.J.) to detect metabolic active cells. Absorbance was measured at 570 nm in the Spectra Max 190 ELISA reader (Molecular Devices, Sunnyvale, Calif.) after overnight incubation. […]
# p53 = p53 transcriptional activity (Cignal p53 luciferase reporter) in UMSCC47 cells; type: cell-based, human; details: UMSCC47 (HPV-positive), 10 μM, 24 hours, vs control (vehicle)
# Description: as §1
# FIG. 6A is a western blot showing total and acetylated p53 levels. […] UMSCC47 cells were treated with control (vehicle), CH1iB (10 μM), cis-platinum (10 μM), or CH1iB (10 μM) and cis-platinum (10 μM) for 24 hours. mRNA expression was determined using qPCR with validated TaqMan assays. […]
substance,measurement,setting,value
"XELA*RAADQ-NH2 (ELXRAADQ; HBS: 4-pentenoic acid, N-allylalanine; C-terminal amide; CH1iB-MUT)",effect on anti-proliferative efficacy of cis-platinum (combination),"UMSCC47 cells; UMSCC47, 10 μM with cis-platinum 10 μM",no effect
same,"cell proliferation, single-agent","UMSCC47 cells; UMSCC47, 10 μM, 24-72 hours",no effect
same,p53 activity increase,p53,14%
